Several values for one entry are separate records, joined by “and”; a condition that tells them apart may be missing. Equal entries are not always repeated.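 Results reflect a 48-hour exposure of cells in 96-well plates to compound at five concentrations. GI50 is the concentration that inhibits growth by half. The concentration for full growth arrest is given as TGI.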 A value given as a limit tells only on which side of the number the result lay.

Experiment in all cases: growth of human tumour cells (NCI), 48 h
Assay [1] deals with SK-MEL-28 melanoma.
Assay [2] deals with HCT-15 colon.
The subject of assay [3] is HCC-2998 colon.
The test system of assay [4] is SF-539 CNS.
The test system of assay [5] is HCT-116 colon.
Assay [6] concerns A549 NSCLC.
In assay [7] the test system is SNB-19 CNS.
Assay [8] deals with CAKI-1 renal.
For assay [9], the system named is MCF7 breast.
Assay [10] deals with NCI-H226 lung.

For the compound `COCCOCOC(C)(C)[C@H](CCO)O[Si](c1ccccc1)(c1ccccc1)C(C)(C)C`, the TGI in [1] came to 29.7 µM; in assay [2] it was 17.5 µM; in assay [3], 18.9 µM; in [4], 27.4 µM; in [5], 14.1 µM; in assay [6], 22.1 µM. The same compound showed a TGI in assay [7] of 31.7 µM.
`C/C(=N\NC(=S)Nc1ccc([N+](=O)[O-])cc1)c1nc2ncccc2[nH]1`: the TGI in assay [1] was 3.2 µM; in [2], 9.04 µM; in [8], over 100 µM; in assay [3], 10.8 µM; in assay [9] it was 2.38 µM; in assay [4], 1.37 µM. Besides, the TGI came out at 6.12 µM in [5], 19.1 µM in [6], 4 µM in assay [7] and 1.87 µM in assay [10].
Take `c1ccc2cc3c(cc2c1)OP1(Oc2cccc4cccnc24)(O3)Oc2cc3ccccc3cc2O1`: the TGI in [1] was over 100 µM; in assay [2], over 100 µM; in assay [8], 20.6 µM; in assay [3], 27.2 µM; in assay [9] it was over 100 µM; in [4], 49.2 µM. Moreover, the TGI was over 100 µM in assay [5], over 100 µM in [6], over 100 µM in assay [7] and 44.5 µM in assay [10].
For the compound `O=C1c2ccccc2C(=O)c2c1cc1c(c2[N+](=O)[O-])OCO1`, the GI50 is 3.52 µM in assay [1]; 2.15 µM in assay [2]; 0.556 µM in assay [8]; 1.5 µM in [3]; 1 µM in [9]; 1.71 µM in [4]. Further, the GI50 was 0.641 µM in assay [5], 4.94 µM in assay [6], 2.55 µM in [7] and 2.06 µM in assay [10]. Besides, the TGI stood at 26.6 µM in [1]; 8.82 µM in [2]; 4.51 µM in assay [8]; 4 µM in [3]; 7.29 µM in assay [9]; 6.31 µM in assay [4]. Further, the TGI came out at 4.44 µM in [5], 21.9 µM in assay [6], 14.4 µM in assay [7] and 7.16 µM in [10].
As to `C/C(N=NS(=O)(=O)c1ccc(C)cc1)=C1\C=CC=CN1O`, the TGI in assay [1], in assay [2], in [8], in [3], in assay [4] and in assay [5] was over 100 µM each time. Moreover, the TGI in assay [6] and in [7] was over 100 µM each time.
With `O=C(O)CCCc1ccccc1`, the GI50 in assay [1] is 325 µM and > 1000 µM; in assay [2] it was over 1000 µM; in assay [8], over 1000 µM; in assay [3], over 1000 µM; in [9], 160 µM and > 1000 µM; in assay [4] it was over 1000 µM. The GI50 was over 1000 µM in assay [5]; 322 µM and > 1000 µM in assay [6]; 537 µM and > 1000 µM in assay [7]; 253 µM and > 1000 µM in assay [10]. The TGI was over 1000 µM in assay [1]; 342 µM and > 1000 µM in assay [2]; over 1000 µM in assay [8]; 517 µM and > 1000 µM in [3]; over 1000 µM in assay [9]; 533 µM and > 1000 µM in assay [4]. Moreover, the TGI is over 1000 µM in assay [5]; over 1000 µM in [6]; over 1000 µM in assay [7]; 917 µM and > 1000 µM in assay [10].
For `Nc1n[nH]c(CCCCCCCc2nc(N)n[nH]2)n1`, the TGI in [1], in assay [2], in [3], in [4], in assay [5] and in assay [7] was over 100 µM throughout.
As to `OC1COC(OCc2ccccc2)C(O)C1O` (stereo not drawn), the TGI in [1], in [2], in assay [8], in assay [3], in assay [9] and in assay [4] was over 100 µM in each case. The TGI in assay [5], in assay [6], in assay [7] and in [10] was over 100 µM in each case.
On to `O=C(O)CC12CC3CC(CC(O)(C3)C1)C2`, for which the TGI in assay [1], in [2], in assay [8], in assay [3], in assay [9] and in [4] was over 100 µM each time. Moreover, the TGI in [5], in [6], in assay [7] and in assay [10] was over 100 µM in each case.
Turning to `C=CCNC(=O)CN(CC(=O)OC)C1CCCCC1N(CC(=O)OC)CC(=O)OC` (stereo not drawn), the TGI in assay [1], in [2], in assay [8], in assay [3], in [9] and in assay [4] was over 100 µM in each case. Also, the TGI in [5], in assay [6], in [7] and in assay [10] was over 100 µM each time.
For `CC(C)=CCC/C(C)=C/CCC1(C)C=Cc2c(c3ccccc3oc2=O)O1` (stereo not drawn), the TGI in assay [1] came out at 29.9 µM; in assay [2], 30.2 µM; in assay [8], 33 µM; in assay [3] it was 31.8 µM; in assay [9], 30.5 µM; in [4], 30.5 µM. For the same compound, the TGI came to 28 µM in assay [5], 33.2 µM in assay [6], 37.7 µM in assay [7] and 30 µM in assay [10].
In the case of `COc1cc(C(=O)C2CC3(CCC2(O)c2cc(OC)c(OC)c(OC)c2)CC(=O)Nc2ccccc2C3=O)cc(OC)c1OC` (stereo not drawn), the TGI in assay [1], in [2], in assay [8], in assay [3], in assay [9] and in assay [4] was over 100 µM in each case. Besides, the TGI in assay [5], in assay [6], in assay [7] and in assay [10] was over 100 µM each time.
For `Cc1cn(C2CC(O)C(Cn3nncc3Cn3ncc(=O)[nH]c3=O)O2)c(=O)[nH]c1=O` (stereo not drawn), the TGI in assay [1], in assay [2], in assay [8], in [3], in assay [9] and in assay [4] was over 100 µM throughout. Besides, the TGI in assay [5], in [6], in assay [7] and in [10] was over 100 µM each time.
Turning to `COc1cc(/C=C/C2=C(C#N)C(=O)OC2(C)C)ccc1O`, the TGI in assay [1] is over 100 µM; in assay [2], 93.8 µM; in [8] it was over 100 µM; in [3], over 100 µM; in assay [5], over 100 µM; in [6], over 100 µM. Also, the TGI in assay [7] and in assay [10] was over 100 µM in each case.
With `Cc1cccc(CNc2ncnc3[nH]ncc23)c1`, the TGI in assay [1], in assay [2], in assay [8], in assay [9], in assay [4] and in assay [5] was over 100 µM each time. In addition, the TGI in assay [6], in assay [7] and in assay [10] was over 100 µM in each case.
As to `CC(C)=CC(=O)OC1C2C(C)=CC(O)C(O)C2(C)C2C3(O)OCC24C(CC(=O)OC14)C(C)C3O` (stereo not drawn), the TGI in assay [1] came to 0.199 µM; in assay [2], 6.84 µM; in [8], 13.9 µM; in assay [3], 0.572 µM; in assay [9], 0.107 µM; in [4], 0.187 µM. The TGI in assay [5] is 0.381 µM; in assay [6], 9.68 µM; in assay [7] it was 0.519 µM; in assay [10], 0.388 µM.
For the compound `O=C(O)C12CC3CC(C1)C2C=C3P(=O)(O)O` (stereo not drawn), the TGI in [1], in assay [2], in assay [8], in assay [3], in assay [5] and in assay [10] was over 100 µM throughout.
As for `CC1SC(c2ccc(Cl)cc2)N(CCc2cccs2)C1=O` (stereo not drawn), the GI50 in assay [1] is 1.58 µM; in [2] it was 1.56 µM; in [8] it was 1.15 µM; in assay [3], 1.55 µM; in assay [9] it was 2.11 µM; in [4] it was 1.72 µM. Also, the GI50 is 1.09 µM in assay [5], 2.07 µM in [6], 1.65 µM in assay [7] and 1.5 µM in assay [10]. Further, the TGI in [1] was 2.99 µM; in assay [2] it was 3.59 µM; in assay [8], 3.42 µM; in assay [3], 3.4 µM; in [9], 6.23 µM; in assay [4], 3.21 µM. Also, the TGI in assay [5] was determined as 2.28 µM; in assay [6], 7.41 µM; in [7], 3.31 µM; in assay [10], 3.26 µM.
`Cc1c(C2=NN=C(N=Nc3c(O)cccc3O)/C2=C/c2ccccc2)c(=O)n(-c2ccccc2)n1C`: the TGI in assay [1], in [2], in assay [8], in assay [3], in assay [9] and in [4] was over 100 µM each time. The TGI in [5], in assay [6], in assay [7] and in assay [10] was over 100 µM each time.
For `C=C1C2CCC3(CCC4C5(C)CCCC4(C=[N+](CCO)C5)C3C2)C1O` (stereo not drawn), the TGI in assay [1], in assay [2], in assay [8], in assay [3], in assay [9] and in [4] was over 100 µM in each case. The TGI in assay [5], in assay [6] and in [7] was over 100 µM throughout.

The values above are taken from PubChem BioAssay (NCI).
